Reference: article PMC3428910 (Bioorganic & medicinal chemistry letters, 2006)

Target: T1, human glutathione reductase (hGR) (Homo sapiens, UniProt P00390)
T1 sequence (P00390 44-522): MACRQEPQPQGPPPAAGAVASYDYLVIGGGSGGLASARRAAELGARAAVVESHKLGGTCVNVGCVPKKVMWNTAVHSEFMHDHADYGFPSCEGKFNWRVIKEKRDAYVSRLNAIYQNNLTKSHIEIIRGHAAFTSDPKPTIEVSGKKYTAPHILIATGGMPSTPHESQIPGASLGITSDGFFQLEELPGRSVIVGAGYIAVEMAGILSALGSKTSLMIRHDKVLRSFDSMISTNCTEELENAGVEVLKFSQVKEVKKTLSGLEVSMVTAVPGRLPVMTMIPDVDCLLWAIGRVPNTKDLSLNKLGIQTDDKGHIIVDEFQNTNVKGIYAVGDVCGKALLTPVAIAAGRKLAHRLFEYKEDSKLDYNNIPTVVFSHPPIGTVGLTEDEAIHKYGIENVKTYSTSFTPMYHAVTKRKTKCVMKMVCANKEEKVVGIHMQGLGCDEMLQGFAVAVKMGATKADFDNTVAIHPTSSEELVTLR
Assay: Human glutathione reductase inhibition
Assay type: biochemical
Conditions: GR IC50/TR IC50

CC(C)(C)c1cc(CN2CCCCCC2)cc(C(C)(C)C)c1O [Compound 7c]
Selectivity for TR: >4
